Experiment [1] concerns homozygous mice. As to the kind of experiment: Detection of cytokines and adhesion molecules in plasma of homozygous mice on HF diet with/without Dox, weekly MTX. The class given is in vivo. The text has this: (§1) Homozygous mice, divided into 5 groups, are to fed with normal diet (Chow), high-fat diet (HF), high-fat diet plus boostin (HF+D), high-fat diet plus methotrexate (MTX) (HF+M), and high-fat diet plus boostin and methotrexate (HF+D+M). […] Homozygous mice are fed with normal diet (Chow) until 8 weeks old, and are fed with high fat diet HF (HF formula: 21.2% fat, 48.7% carbohydrate, 17.3% protein, and 0.25% cholesterol) for 8 weeks. The mice are divided in to groups, with each group having 15 mice. The HF group is fed with high-fat diet, and is injected with 100 μl of physiological saline weekly. The HF+M group is fed with high-fat diet, and is injected with methotrexate at a dose of 1 mg/kg once a week. The HF+D group is fed with high-fat diet and 1-2 mg/ml of doxycycline together with drinking water, and is injected with 100 μl of physiological saline weekly. The HF+D+M group is fed with high-fat diet, injected with methotrexate at a dose of 1 mg/kg once a week, and fed with doxycycline at 1-2 mg/ml together with drinking water. The blood pressure changes of the mice are periodically detected, and the data such as blood, blood lipids, blood pressure and death data etc. of the mice are collected.
As shown in FIGS. 11A to 11D, hypertension combined with a high-fat diet induce higher accumulation of triglycerides in the blood of mice. The inventors, using homozygous mice, have studied the effects of methotrexate (MTX) (an anti-inflammatory drug) on cardiovascular. Male homozygous mice are fed with HF diet with/without the addition of doxycycline (Dox), and are further randomized by intraperitoneal injection of MTX or control (vector) weekly. […] Hypertension combined with a high-fat diet induced higher mortality of mice, but if injected with methotrexate weekly, the survival rate of mice is increased at 8 weeks of co-administration (74% versus 43%, FIG. 12B).

Experiment [2] deals with homozygous mice. Nature of the experiment: Survival of hypertensive (Dox) homozygous mice on high-fat diet, weekly methotrexate injection. In kind it is in vivo. To be noted: hypertension (Dox) combined with high-fat diet, methotrexate 1 mg/kg weekly, at 8 weeks of co-administration, control 43%, FIG. 12B.
Excerpt: as §1
As shown in FIGS. 11A to 11D, hypertension combined with a high-fat diet induce higher accumulation of triglycerides in the blood of mice. […]

Experiment [3] relates to homozygous mice. Nature of the experiment: Quantification of ascending aortic atherosclerotic plaques in homozygous mice on HF diet with/without Dox, weekly MTX. To be noted: hypertensive (Dox) homozygous mice fed HF diet for 8 weeks, control 46%, P<0.05, FIGS. 12C-D. In kind it is in vivo. The text has this: Homozygous mice (Hom) and ApoE knockout mice (KO) are used as controls, the experiment is employed by dividing the mice into four groups, each group has 15 mice, four groups being normal diet group (Chow), high fat diet group (HF), higher fat diet group (H-HF) and ultra-high fat diet group (CH-HF). The mice are fed with normal diet group (Chow) until 8 weeks old and then are fed with different high fat diet, respectively being HF feed (HF formula: 21.2% fat, 48.7% carbohydrate, 17.3% protein, and 0.25% cholesterol), H-HF feed (H-HF formula: 21.2% fat, 48.7% carbohydrate, 17.3% protein, and 1.25% cholesterol), and CH-HF feed (CH-HF formula: 21.2% fat, 48.7% carbohydrate, 17.3% protein, 1.25% cholesterol, and 0.5% cholic acid). After 8 weeks of treatment, collecting the blood of the mice, detecting the body weight, heart weight, spleen weight and blood lipids of the mice, and isolating the mice aorta for oil red O staining so as to quantify the atherosclerotic plaque content.
(§2) Homozygous mice, divided into 5 groups, are to fed with normal diet (Chow), high-fat diet (HF), high-fat diet plus boostin (HF+D), high-fat diet plus methotrexate (MTX) (HF+M), and high-fat diet plus boostin and methotrexate (HF+D+M). […] The blood pressure changes of the mice are periodically detected, and the data such as blood, blood lipids, blood pressure and death data etc. of the mice are collected. […]

For experiment [4], the system named is patients suffering from long-term inflammatory diseases such as rheumatoid arthritis. To be noted: clinically, low doses; patients with long-term inflammatory diseases such as rheumatoid arthritis; ref. [10]; cited from earlier work.
Experiment [5] has as its system homozygous mice. As to the kind of experiment: Blood pressure of homozygous mice on HF diet with/without doxycycline, weekly MTX injection (non-invasive tail pressure measurement). The class given is in vivo. The following applies: male homozygous mice, HF diet with/without Dox, MTX 1 mg/kg i.p. once a week; FIG. 12A. How it is done:
The mice are divided into 3 groups for experiments, wild-type mice (Wt), homozygous mice (Hom) and heterozygous mice (Het), with each group having 15 mice. The mice are fed with normal diet (Chow) until 8 weeks old, and are administrated tetracycline analog doxycycline (1 to 2 mg/ml) with water. The blood pressure changes of mice are measured periodically. The method for measuring the blood pressure of mice is the method of non-invasive tail pressure measurement (iiTC Life Science, Woodland Hills, CA), wherein the mice are fixed in the sleeve and stay quiet in the sleeve for 10 minutes. Then the instrument is operated to measure the blood pressure at the tail of mice using […], three measurements are made for each operation, and the average is taken. Mice blood is collected, and body weight, heart weight, spleen weight, blood lipids and blood pressure of mice are measured.
as §2

The test system of experiment [6] is IL-6, ICAM-1, E-selectin, VCAM-1 expressions. The following applies: general statement on the anti-inflammatory drug; cited from earlier work.
[7] abbreviates: hypertensive (Dox) homozygous mice, HF diet, MTX weekly, FIG. 12H-J.
Setting [8] is: induced hypertensive MTX group compared with control group, FIGS. 12K-S.

In the case of `CN(Cc1cnc2nc(N)nc(N)c2n1)c1ccc(C(=O)N[C@@H](CCC(=O)O)C(=O)O)cc1` [MTX, methotrexate], the “plasma concentration of MCP-5, intercellular adhesion molecule-1 and vascular cell adhesion molecules” value in experiment [1] (homozygous mice having normal blood pressure, HF diet, MTX weekly, FIG. 12H-J) was “would not produce any effect”. Further, in experiment [1] (setting [7]), the “plasma concentration of intercellular adhesion molecule-1” value is given as “would significantly reduce” and the “plasma concentration of monocyte chemoattractant protein (MCP)-5” value is “would significantly reduce”. In addition, in experiment [1] (setting [8]), the “E-selectin level in plasma” value is recorded as “decreased level”, the “IL-1β level in plasma” value is reported as “decreased level”, the “IL-6 level in plasma” value was “decreased level” and the “IL-17 level in plasma” value was “decreased level”. Further, in experiment [1] (setting [8]), the “MCP-1 level in plasma” value is “decreased level”, the “P-selectin level in plasma” value was “decreased level”, the “granulocyte colony-stimulating factor level in plasma” value is “decreased level” and the “interferon-γ level in plasma” value is “decreased level”. In addition, the “tumor necrosis factor-α level in plasma” value in experiment [1] (setting [8]) is recorded as “decreased level”. The “survival rate of mice” value in experiment [2] is listed as 74%. Besides, the atherosclerotic lesions in experiment [3] came out at 34%. Also, in experiment [4], the “cardiovascular risk in patients” value was “could reduce cardiovascular risk”. The “blood pressure of the mice” value in experiment [5] is “would not alter”. For the same compound, the “IL-6, ICAM-1, E-selectin, VCAM-1 expressions” value in experiment [6] is reported as “can down-regulate”.

The values are drawn from patent publication US11882816B2, “Genetically engineered non-human mammal, construction method therefor and use thereof” (priority 2017, dated 2024).
